Read-outs that look alike come from different tables or passages of the source.
Assays:
[1] = biological target: FGFR3 (h) (Homo sapiens, UniProt P22607); test: FGFR3 (enzymatic assay), TR-FRET; format: biochemical; conditions: 60 min, pIC50 = -log IC50 (M), average if tested multiple times
[2] = biological target: KDR (h) (Homo sapiens, UniProt P35968); test: KDR (VEGFR2) (enzymatic assay), TR-FRET; format: biochemical; conditions: 120 min, pIC50 = -log IC50 (M), average if tested multiple times
KDR (h), sequence (P35968 20-1356): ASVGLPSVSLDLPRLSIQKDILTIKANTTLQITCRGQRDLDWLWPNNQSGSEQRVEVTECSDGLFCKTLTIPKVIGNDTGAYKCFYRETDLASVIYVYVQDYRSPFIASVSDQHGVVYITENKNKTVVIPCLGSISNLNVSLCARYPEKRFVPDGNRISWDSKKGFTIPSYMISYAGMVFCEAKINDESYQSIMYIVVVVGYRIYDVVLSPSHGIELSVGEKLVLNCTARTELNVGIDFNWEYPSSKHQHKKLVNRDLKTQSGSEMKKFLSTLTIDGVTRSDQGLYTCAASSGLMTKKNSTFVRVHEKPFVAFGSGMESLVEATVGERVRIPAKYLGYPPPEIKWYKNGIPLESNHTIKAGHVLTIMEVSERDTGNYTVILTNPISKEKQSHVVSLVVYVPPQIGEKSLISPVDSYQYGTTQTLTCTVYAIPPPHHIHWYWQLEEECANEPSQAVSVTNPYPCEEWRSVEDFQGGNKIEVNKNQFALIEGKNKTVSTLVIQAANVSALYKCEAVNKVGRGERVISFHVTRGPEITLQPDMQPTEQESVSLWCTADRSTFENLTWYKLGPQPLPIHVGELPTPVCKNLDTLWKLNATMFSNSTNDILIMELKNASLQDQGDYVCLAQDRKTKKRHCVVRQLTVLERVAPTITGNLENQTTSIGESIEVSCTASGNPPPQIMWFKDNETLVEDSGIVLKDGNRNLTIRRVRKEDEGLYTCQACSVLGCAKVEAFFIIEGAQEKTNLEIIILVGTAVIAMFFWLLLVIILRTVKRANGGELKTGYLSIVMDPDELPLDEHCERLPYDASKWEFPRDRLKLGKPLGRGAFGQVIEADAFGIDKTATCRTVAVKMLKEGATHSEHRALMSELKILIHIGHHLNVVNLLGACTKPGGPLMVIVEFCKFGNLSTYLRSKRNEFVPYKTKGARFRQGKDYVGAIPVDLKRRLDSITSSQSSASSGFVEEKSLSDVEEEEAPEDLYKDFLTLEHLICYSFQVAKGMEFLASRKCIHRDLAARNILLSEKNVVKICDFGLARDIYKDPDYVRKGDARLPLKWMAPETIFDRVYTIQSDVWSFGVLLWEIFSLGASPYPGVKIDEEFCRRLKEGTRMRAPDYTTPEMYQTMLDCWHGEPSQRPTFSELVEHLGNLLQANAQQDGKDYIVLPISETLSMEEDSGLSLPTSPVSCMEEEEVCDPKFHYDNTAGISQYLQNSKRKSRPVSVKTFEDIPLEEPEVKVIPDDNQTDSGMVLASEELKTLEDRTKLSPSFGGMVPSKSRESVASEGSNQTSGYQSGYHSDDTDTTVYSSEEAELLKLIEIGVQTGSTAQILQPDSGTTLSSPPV
Protocol: KDR (VEGFR2) (Enzymatic Assay)
In a final reaction volume of 30 μL, KDR (h) (150 ng/ml) was incubated with 50 mM HEPES pH 7.5, 6 mM MnCl2, 1 mM DTT, 0.1 mM Na3VO4, 0.01% Triton-X-100, 500 nM Btn-Flt3 and 3 μM ATP in the presence of compound (1% DMSO final). After incubation for 120 minutes at room temperature the reaction was stopped with 2.27 nM EU-anti P-Tyr, 7 mM EDTA, 31.25 nM SA-XL-665 and 0.02% BSA which was present for 60 minutes at room temperature. Time-Resolved Fluorescence Resonance Energy Transfer (TR-FRET) signal (ex340 nm. Em 620 nm, em 655 nm) was measured afterwards and results are expressed in RFU (Relative Fluorescence Units). In this assay, the inhibitory effect of different compound concentrations (range 10 μM to 0.1 nM) was determined and used to calculate an IC50 (M) and pIC50 (−log IC50) value.

[3] = biological target: T1, Ba/F3-FGFR1-transfected cells (Homo sapiens, UniProt P11362, cells depend on it, form not given); test: Ba/F3-FGFR1 (minus IL3 or plus IL3) cellular proliferation assay, Alamar Blue; format: cell-based; conditions: minus IL3, 24 hours
T1 construct: other: minus IL3; 24 hours, Alamar Blue
T1 sequence (P11362 whole entry, change not shown): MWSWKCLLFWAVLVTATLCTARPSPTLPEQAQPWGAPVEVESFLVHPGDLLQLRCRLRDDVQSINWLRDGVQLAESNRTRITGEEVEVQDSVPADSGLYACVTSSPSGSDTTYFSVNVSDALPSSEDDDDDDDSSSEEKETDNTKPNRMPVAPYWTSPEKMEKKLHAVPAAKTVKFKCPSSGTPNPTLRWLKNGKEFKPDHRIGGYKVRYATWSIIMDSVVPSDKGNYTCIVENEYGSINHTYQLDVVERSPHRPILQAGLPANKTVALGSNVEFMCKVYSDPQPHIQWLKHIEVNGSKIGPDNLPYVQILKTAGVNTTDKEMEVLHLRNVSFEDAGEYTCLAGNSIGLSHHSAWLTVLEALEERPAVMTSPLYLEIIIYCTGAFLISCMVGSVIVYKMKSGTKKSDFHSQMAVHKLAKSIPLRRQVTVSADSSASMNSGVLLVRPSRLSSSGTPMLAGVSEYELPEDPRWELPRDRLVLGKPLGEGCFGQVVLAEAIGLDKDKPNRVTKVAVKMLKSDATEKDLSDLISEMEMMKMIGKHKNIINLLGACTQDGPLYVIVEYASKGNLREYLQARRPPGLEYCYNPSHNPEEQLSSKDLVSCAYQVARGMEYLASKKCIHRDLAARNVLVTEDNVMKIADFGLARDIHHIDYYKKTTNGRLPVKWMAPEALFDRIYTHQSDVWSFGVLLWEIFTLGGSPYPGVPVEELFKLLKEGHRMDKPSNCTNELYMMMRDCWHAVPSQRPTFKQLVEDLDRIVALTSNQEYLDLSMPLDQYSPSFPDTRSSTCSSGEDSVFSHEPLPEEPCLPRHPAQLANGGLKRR
Protocol: Ba/F3-FGFR1 (Minus IL3 or Plus IL3) (Cellular Proliferation Assay)
(§1) In a 384 well plate, 100 nl of compound dilution in DMSO was sprayed before adding 50 μl cell culture medium (phenol red free RPMI-1640, 10% FBS, 2 mM L-Glutamine and 50 μg/ml Gentamycin) containing 20000 cells per well of Ba/F3-FGFR1-transfected cells. Cells were put in an incubator at 37° C. and 5% CO2. After 24 hours, 10 μl of Alamar Blue solution (0.5 mM K3Fe(CN)6, 0.5 mM K4Fe(CN)6, 0.15 mM Resazurin and 100 mM Phosphate Buffer) was added to the wells, incubated for 4 hours at 37° C. and 5% CO2 before RFU's (Relative Fluorescence Units) (ex. 540 nm., em. 590 nm.) were measured in a fluorescence plate reader.
(§2) In this assay, the inhibitory effect of different compound concentrations (range 10 μM to 0.1 nM) was determined and used to calculate an IC50 (M) and pIC50 (−log IC50) value. As a counterscreen the same experiment was performed in the presence of 10 ng/ml murine IL3.

[4] = biological target: T2, Ba/F3-Flt3-transfected cells (Homo sapiens, UniProt P36888, cells depend on it, form not given); test: Ba/F3-Flt3 (minus IL3 or plus IL3) cellular proliferation assay, Alamar Blue; format: cell-based; conditions: minus IL3, 24 hours
T2 construct: BAF3-FLT3 (MIN IL3 Alamar Blue pIC50); other: minus IL3; 24 hours, Alamar Blue
T2 sequence (P36888 1-993): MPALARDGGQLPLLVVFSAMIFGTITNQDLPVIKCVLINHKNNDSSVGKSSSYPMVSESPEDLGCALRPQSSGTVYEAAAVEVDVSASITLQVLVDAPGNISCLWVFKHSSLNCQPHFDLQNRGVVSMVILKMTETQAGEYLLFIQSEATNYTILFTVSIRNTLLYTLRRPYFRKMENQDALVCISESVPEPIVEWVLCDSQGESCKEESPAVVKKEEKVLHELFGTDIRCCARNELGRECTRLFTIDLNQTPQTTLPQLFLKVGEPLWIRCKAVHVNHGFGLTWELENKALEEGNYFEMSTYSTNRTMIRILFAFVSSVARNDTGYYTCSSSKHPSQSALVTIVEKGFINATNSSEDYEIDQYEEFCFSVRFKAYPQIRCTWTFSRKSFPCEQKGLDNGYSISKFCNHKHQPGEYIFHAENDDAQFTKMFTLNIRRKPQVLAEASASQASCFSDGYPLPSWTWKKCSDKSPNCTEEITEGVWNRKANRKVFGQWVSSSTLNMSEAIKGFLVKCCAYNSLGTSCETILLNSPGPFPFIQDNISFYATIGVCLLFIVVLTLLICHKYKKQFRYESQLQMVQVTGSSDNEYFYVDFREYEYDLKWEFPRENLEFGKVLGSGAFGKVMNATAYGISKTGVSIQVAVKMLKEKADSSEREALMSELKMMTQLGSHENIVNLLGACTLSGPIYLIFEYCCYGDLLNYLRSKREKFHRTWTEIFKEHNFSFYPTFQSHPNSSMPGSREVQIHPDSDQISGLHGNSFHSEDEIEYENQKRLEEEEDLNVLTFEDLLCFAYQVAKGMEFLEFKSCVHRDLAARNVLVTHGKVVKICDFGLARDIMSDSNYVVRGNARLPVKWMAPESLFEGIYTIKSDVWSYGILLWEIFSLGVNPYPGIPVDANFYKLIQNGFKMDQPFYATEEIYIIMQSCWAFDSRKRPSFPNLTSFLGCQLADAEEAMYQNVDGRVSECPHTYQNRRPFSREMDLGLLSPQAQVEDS
Protocol: Ba/F3-Flt3 (Minus IL3 or Plus IL3) (Cellular Proliferation Assay)
as §1, with “Ba/F3-Flt3-transfected” for “Ba/F3-FGFR1-transfected”
as §2

[5] = biological target: FGFR1 (h) (Homo sapiens, UniProt P11362); test: FGFR1 (enzymatic assay), TR-FRET; format: biochemical; conditions: FGFR 1 pIC50, 5 μM ATP, 60 min; pIC50 = -log IC50 (M); average if tested multiple times
FGFR1 (h), sequence (P11362 22-822): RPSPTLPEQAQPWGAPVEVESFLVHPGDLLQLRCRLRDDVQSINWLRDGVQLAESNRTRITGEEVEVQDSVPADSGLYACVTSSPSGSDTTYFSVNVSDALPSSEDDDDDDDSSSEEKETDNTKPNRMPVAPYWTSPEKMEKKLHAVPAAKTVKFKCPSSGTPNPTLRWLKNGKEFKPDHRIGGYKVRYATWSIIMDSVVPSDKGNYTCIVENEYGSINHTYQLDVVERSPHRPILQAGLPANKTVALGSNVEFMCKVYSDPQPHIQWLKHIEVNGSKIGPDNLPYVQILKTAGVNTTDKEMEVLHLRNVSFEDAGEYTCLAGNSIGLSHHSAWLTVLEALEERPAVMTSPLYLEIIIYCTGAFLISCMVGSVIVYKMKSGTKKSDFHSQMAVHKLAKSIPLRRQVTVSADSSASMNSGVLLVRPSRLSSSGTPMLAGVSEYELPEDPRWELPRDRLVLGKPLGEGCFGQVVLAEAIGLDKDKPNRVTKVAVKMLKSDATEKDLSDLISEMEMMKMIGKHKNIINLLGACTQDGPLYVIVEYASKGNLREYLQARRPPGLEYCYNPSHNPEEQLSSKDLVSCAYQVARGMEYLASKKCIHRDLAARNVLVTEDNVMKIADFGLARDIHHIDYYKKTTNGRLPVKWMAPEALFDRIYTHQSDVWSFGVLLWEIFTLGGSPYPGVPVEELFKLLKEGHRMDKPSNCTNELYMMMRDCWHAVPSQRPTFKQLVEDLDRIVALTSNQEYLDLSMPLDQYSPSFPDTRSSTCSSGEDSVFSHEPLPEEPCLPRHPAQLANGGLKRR

[6] = 25 μM ATP, read-out: hFGFR 3 pIC50 (converted)
[7] = 3 μM ATP, read-out: VEGFR KDR pIC50 (converted)

FGFR3 (h), sequence (P22607 23-806): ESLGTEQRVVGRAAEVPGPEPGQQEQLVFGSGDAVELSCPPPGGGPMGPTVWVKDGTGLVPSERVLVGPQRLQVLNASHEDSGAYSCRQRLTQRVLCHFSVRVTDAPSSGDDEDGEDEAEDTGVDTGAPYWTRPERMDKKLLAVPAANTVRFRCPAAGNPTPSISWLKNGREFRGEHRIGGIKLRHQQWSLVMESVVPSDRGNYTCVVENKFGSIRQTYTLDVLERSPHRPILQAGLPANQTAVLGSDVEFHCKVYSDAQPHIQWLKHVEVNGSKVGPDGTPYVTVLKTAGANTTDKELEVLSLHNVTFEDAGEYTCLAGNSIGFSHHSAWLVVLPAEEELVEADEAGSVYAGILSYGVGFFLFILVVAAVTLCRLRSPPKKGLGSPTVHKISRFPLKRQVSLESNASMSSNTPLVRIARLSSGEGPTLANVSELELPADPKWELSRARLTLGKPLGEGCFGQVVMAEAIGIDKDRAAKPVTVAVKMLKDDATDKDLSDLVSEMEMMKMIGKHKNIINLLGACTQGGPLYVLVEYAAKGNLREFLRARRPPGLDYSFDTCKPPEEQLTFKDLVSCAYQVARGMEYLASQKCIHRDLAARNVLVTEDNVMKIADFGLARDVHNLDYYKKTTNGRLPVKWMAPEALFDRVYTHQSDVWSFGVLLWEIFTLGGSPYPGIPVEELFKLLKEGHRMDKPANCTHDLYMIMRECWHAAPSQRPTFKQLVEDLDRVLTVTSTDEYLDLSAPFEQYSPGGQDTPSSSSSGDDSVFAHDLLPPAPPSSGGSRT

SMILES | IC50 [1, 6] [M] | IC50 [2, 7] [M] | BAF3-FGFR1 (MIN IL3 pIC50) [3] | BAF3-FLT3 (MIN IL3 Alamar Blue pIC50) [4] | IC50 [5] [M] | IC50 ([1]; hFGFR 3 pIC50, 25 μM ATP) [M] | IC50 ([2]; VEGFR KDR pIC50, 3 μM ATP) [M]
COc1cc(OC)cc(N(CC(O)C(F)(F)F)c2ccc3ncc(-c4cnn(C)c4)cc3c2)c1 (single isomer, unassigned) [Compound 24] | ~1.1e-09 | 2.88e-07 | 7.73 | <5 | – | – | –
COc1cc(OC)cc(N(CC(O)C(F)(F)F)c2ccc3ncc(-c4cnn(C)c4)cc3c2)c1 (single isomer, unassigned) [Compound 25] | 5.89e-09 | 5.89e-07 | 6.57 | <5 | – | – | –
COc1cc(OC)cc(N(CCNC(C)C)c2ccc3ncc(-c4cnn(C)c4)cc3c2)c1 [Compound 1] | 7.94e-09 | 7.41e-08 | 7.4 | ~5 | – | – | –
COc1cc(OC)c(F)c(N(CCNC(C)C)c2ccc3ncc(-c4cnn(C)c4)cc3c2)c1 [Compound 2] | – | 2.57e-08 | 8.3 | 5.34 | 1.32e-09 | 3.89e-09 | –
COc1cc(OC)cc(N(CCO)c2ccc3ncc(-c4cnn(C)c4)cc3c2)c1 [Compound 3] | 4.17e-09 | 9.12e-08 | 6.31 | 5.52 | 1.38e-08 | – | –
COc1cc(OC)cc(N(CCCO)c2ccc3ncc(-c4cnn(C)c4)cc3c2)c1 [Compound 4] | 5.89e-09 | 1.38e-07 | 6.26 | 5.35 | 1.91e-08 | – | –
COc1cc(OC)cc(N(CCCNCC(F)(F)F)c2ccc3ncc(-c4cnn(C)c4)cc3c2)c1 [Compound 5] | 2.29e-08 | 2.45e-07 | 5.79 | 5.06 | – | – | –
COc1cc(OC)cc(N(CC2CCN(c3nccc(OC)n3)C2)c2ccc3ncc(-c4cnn(C)c4)cc3c2)c1 (stereo not shown) [Compound 7] | 9.12e-07 | > 1e-06 | <5 | <5 | – | – | –
COc1cc(OC)cc(N(Cc2ncccn2)c2ccc3ncc(-c4cnn(C)c4)cc3c2)c1 [Compound 8] | 3.24e-08 | 8.13e-07 | 6.27 | <5.47 | – | – | –
COc1cc(OC)cc(N(CCCN2CCCC2=O)c2ccc3ncc(-c4cnn(C)c4)cc3c2)c1 [Compound 10] | 1.55e-08 | – | 6.03 | <5 | – | – | 8.13e-08
COc1cc(OC)cc(N(CCNC(C)C)c2ccc3ncc(-c4cnn(CCS(C)(=O)=O)c4)cc3c2)c1 [Compound 14] | 3.47e-09 | 9.55e-08 | 7.2 | <5 | – | – | –
COc1cc(OC)cc(N(CCCN2CCCO2)c2ccc3ncc(-c4cnn(C)c4)cc3c2)c1 [Compound 19] | – | – | 6.32 | 6.03 | – | 5.62e-09 | 1e-07
COc1cc(OC)cc(N(CCNC(C)C)c2ccc3ncc(-c4cn[nH]c4)cc3c2)c1 [Compound 21] | 3.39e-09 | 1.02e-07 | 7.55 | 5.09 | – | – | –
COc1cc(OC)cc(N(CC#Cc2nccn2C)c2ccc3ncc(-c4cnn(C)c4)cc3c2)c1 [Compound 48] | 7.94e-09 | 2.88e-07 | 7.24 | 5.23 | – | – | –
COc1cc(OC)cc(N(Cc2nccn2S(=O)(=O)N(C)C)c2ccc3ncc(-c4ccncc4)cc3c2)c1 [Compound 58] | 2.75e-08 | 7.24e-07 | ~5.86 | <5 | – | – | –
COc1cc(OC)cc(N(Cc2nccn2S(=O)(=O)N(C)C)c2ccc3ncc(-c4cccnc4)cc3c2)c1 [Compound 60] | 3.16e-08 | > 1e-06 | 5.37 | <5 | – | – | –
